Assay results reported in US20050032873A1, “3-Amino chroman and 2-amino tetralin derivatives” (Wyeth, priority 2003, published 2005).
pEC50, pIC50, pKi: −log10 of the molar value. Read-outs that look alike come from different tables or passages of the source.

Legend:
serotonin transporter = target: T1, serotonin transporter (Rattus norvegicus, UniProt P31652); experiment: 5-HT transporter affinity: displacement of 3H-paroxetine from male rat cortical membranes; type: binding; conditions: displacement of 3H-paroxetine, male rat cortical membranes; for pKi: read-out: 5-HT Transporter Affinity Ki
T1 construct: displace ^3H-paroxetine from male rat cortical membranes; from tissue; host or cells: male rat cortical membranes

[1] = target: T2, cloned human 5-HT1A receptors (Homo sapiens, UniProt P08908); experiment: 35S-GTPγS binding assay, 5-HT1A function; type: biochemical; conditions: for pIC50: antagonist potency, reversal of 8-OH-DPAT, read-out: 5-HT1A Function GTPγS IC50; for pEC50: agonist potency
T2 construct: expressed in transfected cells
T2 sequence (P08908 1-422): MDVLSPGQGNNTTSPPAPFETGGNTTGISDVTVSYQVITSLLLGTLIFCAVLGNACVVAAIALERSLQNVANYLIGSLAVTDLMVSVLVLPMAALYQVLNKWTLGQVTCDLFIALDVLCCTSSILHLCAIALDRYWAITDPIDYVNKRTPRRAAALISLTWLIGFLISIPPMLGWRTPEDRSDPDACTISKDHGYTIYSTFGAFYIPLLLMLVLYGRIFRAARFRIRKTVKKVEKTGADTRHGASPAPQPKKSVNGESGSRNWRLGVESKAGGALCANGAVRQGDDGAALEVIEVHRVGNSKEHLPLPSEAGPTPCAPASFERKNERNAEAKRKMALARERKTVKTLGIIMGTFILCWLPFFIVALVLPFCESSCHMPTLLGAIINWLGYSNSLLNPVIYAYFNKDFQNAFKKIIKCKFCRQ
Excerpt: The agonist or antagonist activity at 5-HT1A receptors was established by using two different assays. […] Agonists produce an increase in binding whereas antagonists produce no increase but rather reverse the effects of the standard agonist 8-OH-DPAT. The test compound's maximum stimulatory effect is represented as the Emax, while its potency is defined by the EC50. The test compound's maximum inhibitory effect is represented as the Imax, while its potency is defined by the IC50. The second assay measured cAMP accumulation upon binding of the ligand to the 5-HT1A receptor. […] The test compound's maximum stimulatory or inhibitory effect is represented as the Emax while its potency is defined by either IC50 for an antagonist or EC50 for an agonist. [^3H]-8-OH-DPAT was used to determine maximum agonist or antagonist response in both functional assays.

5-HT1A receptor = target: T3, 5-HT1A receptor (Homo sapiens, UniProt P08908); experiment: 5-HT1A receptor affinity: displacement of [3H] 8-OH-DPAT; type: binding; set-up: expressed in transfected cells; conditions: for inhibition at 1 µM: read-out: 5-HT1A Receptor Affinity, % @ 1 μM; for pKi: displacement of [3H] 8-OH-DPAT, CHO cells stably transfected with human 5-HT1A receptors, read-out: 5-HT1A Receptor Affinity Ki
T3 sequence (P08908 1-422): T2 sequence (P08908 1-422)

[2] = maximum inhibitory effect, in brackets after IC50, read-out: 5-HT1A Function GTPγS (Imax)
[3] = maximum inhibitory effect, in brackets after IC50
[4] = maximum stimulatory effect, in brackets after EC50, read-out: 5-HT1A Function GTPγS (Emax)

T1 sequence (P31652 whole entry): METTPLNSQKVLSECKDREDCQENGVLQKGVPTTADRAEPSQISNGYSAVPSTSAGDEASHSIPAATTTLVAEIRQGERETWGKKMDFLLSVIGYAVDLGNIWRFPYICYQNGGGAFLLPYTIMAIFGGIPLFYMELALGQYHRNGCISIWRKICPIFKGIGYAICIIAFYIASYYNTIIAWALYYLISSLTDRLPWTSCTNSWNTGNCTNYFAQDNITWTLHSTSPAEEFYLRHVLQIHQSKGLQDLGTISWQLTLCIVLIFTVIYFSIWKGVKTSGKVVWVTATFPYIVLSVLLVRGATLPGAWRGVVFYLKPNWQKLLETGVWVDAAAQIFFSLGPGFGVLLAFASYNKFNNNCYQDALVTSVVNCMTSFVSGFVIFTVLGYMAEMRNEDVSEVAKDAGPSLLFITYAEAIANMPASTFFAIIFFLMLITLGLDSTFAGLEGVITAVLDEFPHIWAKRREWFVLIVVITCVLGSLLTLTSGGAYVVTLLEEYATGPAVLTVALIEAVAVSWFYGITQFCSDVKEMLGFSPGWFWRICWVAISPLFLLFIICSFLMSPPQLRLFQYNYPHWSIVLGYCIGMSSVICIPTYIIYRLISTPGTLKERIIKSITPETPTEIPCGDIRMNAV

pKi (serotonin transporter)	pIC50 [1]	Emax [1, 2] [%]	inhibition at 1 µM (5-HT1A receptor) [%]	5-HT1A Function GTPγS (Imax) [1, 3] [%]	pKi (5-HT1A receptor)	pEC50 [1]	Emax [1, 4] [%]	Compound	Ki (serotonin transporter; 5-HT Transporter Affinity Ki (nM)) [nM]
8.51	6.94	44.6	46					COc1cccc2c1CC(N[C@H]1CC[C@H](c3c[nH]c4ccc(F)cc43)CC1)CO2 (relative stereo) [Compound 181b, trans-N-[4-(5-fluoro-1H-indol-3-yl)cyclohexyl]-5-methoxychroman-3-amine]	
7.19	6.63			100	8.20			CC(CCc1c[nH]c2c(F)cc(F)cc12)N(CC1CC1)C1COc2c(F)ccc(C(N)=O)c2C1 (single isomer, unassigned) [Compound 154a, 3-{(cyclopropylmethyl)[3-(5,7-difluoro-1H-indol-3-yl)-1-methylpropyl]amino}-8-fluorochromane-5-carboxamide]	
8.32	5.15		2	71				CC(CCc1c[nH]c2c(F)cc(F)cc12)N(CC1CC1)C1COc2c(F)ccc(C(N)=O)c2C1 (single isomer, unassigned) [Compound 154d, 3-{(cyclopropylmethyl)[3-(5,7-difluoro-1H-indol-3-yl)-1-methylpropyl]amino}-8-fluorochromane-5-carboxamide]	
7.48	5.04	100	48					NC(=O)c1ccc(F)c2c1C[C@@H](NCC1CCc3c([nH]c4ccc(F)cc34)C1)CO2 (single isomer, unassigned; (+)) [Compound 179a]	
6.07	5.10		49	50				NC(=O)c1ccc(F)c2c1CC(N(CC1CCc3[nH]c4ccc(F)cc4c3C1)C1CCC1)CO2 (single isomer, unassigned; (-)) [Compound 174a, (−)-3-{cyclobutyl[(6-fluoro-2,3,4,9-tetrahydro-1H-carbazol-3-yl)methyl]amino}-8-fluorochromane-5-carboxamide]	
7.72	5.32	87	30					CC(C1CC1)N(CCCc1c[nH]c2ccc(F)cc12)C1COc2c(F)ccc(C(N)=O)c2C1 (centres unmarked) [Compound 6, 3-{(1-cyclopropylethyl)[3-(5-fluoro-1H-indol-3-yl)propyl]amino}-8-fluorochromane-5-carboxamide]	
7.45					6.69	5.10	49	COC(=O)c1ccc(F)c2c1CC(N(CCCCc1c[nH]c3ccc(F)cc13)C1CCC1)CO2 (centres unmarked) [Compound 58, Methyl 3-{cyclobutyl[4-(5-fluoro-1H-indol-3-yl)butyl]amino}-8-fluorochromane-5-carboxylate]	
7.33	5.71	25	0					COC(=O)c1ccc(F)c2c1C[C@H](N(CCCCc1c[nH]c3ccc(F)cc13)C1CCC1)CO2 [Compound 58a, Methyl (3S)-3-{cyclobutyl[4-(5-fluoro-1H-indol-3-yl)butyl]amino}-8-fluorochromane-5-carboxylate]	
7.53	6.20	94			6.86			COC(=O)c1ccc(F)c2c1C[C@@H](N(CCCCc1c[nH]c3ccc(F)cc13)C1CCC1)CO2 [Compound 58b, Methyl (3R)-3-{cyclobutyl[4-(5-fluoro-1H-indol-3-yl)butyl]amino}-8-fluorochromane-5-carboxylate]	
8.34	5.72	50	40					CCCCNC(=O)c1ccc(F)c2c1CC(N(CCCc1c[nH]c3ccc(F)cc13)C1CCC1)CO2 (centres unmarked) [Compound 62, N-butyl-3-{cyclobutyl[3-(5-fluoro-1H-indol-3-yl)propyl]amino}-8-fluorochromane-5-carboxamide]	
8.25			41			5.13	38	O=C(NC1CCCC1)c1ccc(F)c2c1CC(N(CCCc1c[nH]c3ccc(F)cc13)C1CCC1)CO2 (centres unmarked) [Compound 66, 3-{cyclobutyl[3-(5-fluoro-1H-indol-3-yl)propyl]amino}-N-cyclopentyl-8-fluorochromane-5-carboxamide]	
7.43			36			5.74	22	O=C(Nc1ccccc1)c1ccc(F)c2c1CC(N(CCCc1c[nH]c3ccc(F)cc13)C1CCC1)CO2 (centres unmarked) [Compound 70, 3-{cyclobutyl[3-(5-fluoro-1H-indol-3-yl)propyl]amino}-8-fluoro-N-phenylchromane-5-carboxamide]	
6.67	5.10	13	44					CCCCCN(CCCc1c[nH]c2ccc(F)cc12)C1COc2c(F)ccc(C(N)=O)c2C1 (centres unmarked) [Compound 71, 8-fluoro-3-[[3-(5-fluoro-1H-indol-3-yl)propyl](pentyl)amino]chromane-5-carboxamide]	
8.35	5.58	63	43					NC(=O)c1ccc(F)c2c1CC(NCCCCc1c[nH]c3ccc(F)cc13)CO2 (centres unmarked) [Compound 79, 8-fluoro-3-{[4-(5-fluoro-1H-indol-3-yl)butyl]amino}chromane-5-carboxamide]	
7.91					7.26	5.75	94	CNC(=O)c1ccc(F)c2c1CC(NCCCc1c[nH]c3ccc(F)cc13)CO2 (centres unmarked) [Compound 88, 8-fluoro-3-{[3-(5-fluoro-1H-indol-3-yl)propyl]amino}-N-methylchromane-5-carboxamide]	

Compound	pKi (serotonin transporter)	pIC50 [1]	Emax [1, 2] [%]	inhibition at 1 µM (5-HT1A receptor) [%]	5-HT1A Function GTPγS (Imax) [1, 3] [%]	pKi (5-HT1A receptor)	pEC50 [1]	Emax [1, 4] [%]	Ki (serotonin transporter; 5-HT Transporter Affinity Ki (nM)) [nM]
O=C(O)c1ccc(F)c2c1CC(N(CCCc1c[nH]c3ccc(F)cc13)C1CCC1)CO2 (centres unmarked) [Compound 56, 3-{cyclobutyl[3-(5-fluoro-1H-indol-3-yl)propyl]amino}-8-fluorochromane-5-carboxylic acid]	6.30	5.30	50	4					
O=C(NC1CCCCC1)c1ccc(F)c2c1CC(N(CCCc1c[nH]c3ccc(F)cc13)C1CCC1)CO2 (centres unmarked) [Compound 67, 3-{cyclobutyl[3-(5-fluoro-1H-indol-3-yl)propyl]amino}-N-cyclohexyl-8-fluorochromane-5-carboxamide]	7.70	5.71	76	44					
O=C(NCC1CC1)c1ccc(F)c2c1CC(N(CCCc1c[nH]c3ccc(F)cc13)C1CCC1)CO2 (centres unmarked) [Compound 68, 3-{cyclobutyl[3-(5-fluoro-1H-indol-3-yl)propyl]amino}-N-(cyclopropylmethyl)-8-fluorochromane-5-carboxamide]	8.36	5.89	50			6.79			
NC(=O)c1ccc(F)c2c1CC(NCCc1c[nH]c3ccc(F)cc13)CO2 (centres unmarked) [Compound 75, 8-fluoro-3-{[2-(5-fluoro-1H-indol-3-yl)ethyl]amino}chromane-5-carboxamide]	5.99	5.67	40	0					
CCN(CCc1c[nH]c2ccc(F)cc12)C1COc2c(F)ccc(C(=O)NC)c2C1 (centres unmarked) [Compound 85, 3-{ethyl[2-(5-fluoro-1H-indol-3-yl)ethyl]amino}-8-fluoro-N-methylchromane-5-carboxamide]		5.45	72	46					35.4
